pEC50: −log10 of the molar value. Bounds are passed on as bounds.

Series [1] can be described thus: Cytotoxic activity against human HuH7 cells containing HCV subgenomic replicons Ava5-EG(D4AB)SEAP by MTS assay. Format: cell-based, Huh-7.
Series [2] in a line: Inhibition of NS5A in HCV genotype 1b Ava5 infected in human HuH7 cells containing Ava5-EG(D4AB)SEAP subgenomic replicons assessed as reduction in viral replicon growth incubated for 1 day by Phospha-light assay method. Format: cell-based, Hepatitis C virus subtype 1b. To be noted: Hepatitis C virus, Ava5, 24 h. Background: A replicon is a self-replicating genome or part of one, used to study replication in cells.

For the compound `O=C(NC1CC1)N[C@@H](C(=O)N1CCC[C@H]1C(=O)Nc1nc(-c2ccccc2)cs1)c1ccccc1`, the CC50 in series [1] is over 50000 nM. In addition, the pEC50 in series [2] was 8.46.

As to `CC(C)(C)c1csc(NC(=O)[C@@H]2CCCN2C(=O)[C@H](NC(=O)N2CCOCC2)c2ccccc2)n1`, the CC50 in series [1] was over 50000 nM. The pEC50 in series [2] was 7.68.

The compound `O=C(N[C@@H](C(=O)N1CCC[C@H]1C(=O)Nc1nc(-c2ccccc2)cs1)c1ccccc1)C1CCCC1` gave a CC50 in series [1] of over 50000 nM. Further, in series [2], the pEC50 was 7.89.

Take `O=C(Nc1nc(-c2ccccc2)cs1)[C@@H]1CCCN1C(=O)[C@H](NC(=S)Nc1cccnc1)c1ccccc1`: the CC50 in series [1] is over 50000 nM. The pEC50 in series [2] is 7.64.

On to `CN(C)C(=O)N[C@@H](C(=O)N1CCC[C@H]1C(=O)Nc1nc(-c2ccccc2)cs1)c1ccccc1`, for which the CC50 in series [1] was over 50000 nM. In series [2], the pEC50 was 7.96.

`O=C(Nc1nc(-c2ccccc2)cs1)[C@@H]1CCCN1C(=O)[C@H](NC(=O)N1CCCCC1)c1ccccc1` came in with a CC50 in series [1] of over 50000 nM. Also, the pEC50 in series [2] was 8.51.

In series [1], `CCC(=O)N[C@@H](C(=O)N1CCC[C@H]1C(=O)Nc1nc(-c2ccccc2)cs1)c1ccccc1` registered a CC50 of over 50000 nM. Moreover, the pEC50 in series [2] is 7.64.

For `O=C(N[C@@H](C(=O)N1CCC[C@H]1c1ncc(-c2ccccc2)s1)c1ccccc1)N1CCOCC1`, in series [1], the CC50 was over 50000 nM. In addition, the pEC50 in series [2] was 5.53.

For `CN1CCN(C(=O)N[C@@H](C(=O)N2CCC[C@H]2C(=O)Nc2nc(-c3ccccc3)cs2)c2ccccc2)CC1`, the CC50 in series [1] was over 50000 nM. Also, the pEC50 in series [2] is 9.07.

Take `C[C@@H](NC(=O)N1CCOCC1)C(=O)N1CCC[C@H]1C(=O)Nc1nc(-c2ccccc2)cs1`: the CC50 in series [1] is over 50000 nM. For the same compound, the pEC50 in series [2] was 5.88.

With `O=C(N[C@@H](C(=O)N1CCC[C@H]1c1nc(-c2ccccc2)cs1)c1ccccc1)N1CCOCC1`, the CC50 in series [1] was over 50000 nM. Moreover, the pEC50 in series [2] was 5.03.

Compound `CC(C)[C@@H](NC(=O)N1CCOCC1)C(=O)N1CCC[C@H]1C(=O)Nc1nc(-c2ccccc2)cs1` displayed a CC50 in series [1] of over 50000 nM. Further, in series [2], the negative-log EC50 (pEC50) is 6.00.

The compound `CC(C)(C)C(=O)N[C@@H](C(=O)N1CCC[C@H]1C(=O)Nc1nc(-c2ccccc2)cs1)c1ccccc1` showed a CC50 in series [1] of over 50000 nM. Also, in series [2], the pEC50 was 7.07.

In turn, `CCC[C@@H](NC(=O)N1CCOCC1)C(=O)N1CCC[C@H]1C(=O)Nc1nc(-c2ccccc2)cs1` registered a CC50 in series [1] of over 50000 nM. Besides, the pEC50 in series [2] was 6.57.

Compound `O=C(N[C@@H](C(=O)N1CCC[C@H]1C(=O)Nc1nc(-c2ccccc2)cs1)c1ccccc1)c1ccccn1` returned a CC50 in series [1] of over 50000 nM. In addition, the pEC50 in series [2] is 7.66.

Regarding `O=C(Nc1ccccn1)N[C@@H](C(=O)N1CCC[C@H]1C(=O)Nc1nc(-c2ccccc2)cs1)c1ccccc1`, in series [1], the CC50 is over 50000 nM. The pEC50 in series [2] was 7.52.

`O=C(N[C@@H](C(=O)N1CCC[C@H]1C(=O)Nc1nc(-c2ccccc2)cs1)c1ccccc1)c1cccnc1` yielded a CC50 in series [1] of over 50000 nM. Besides, the pEC50 in series [2] is 7.89.

Consider `O=C(NC1CCCCCC1)N[C@@H](C(=O)N1CCC[C@H]1C(=O)Nc1nc(-c2ccccc2)cs1)c1ccccc1`, for which the CC50 in series [1] was over 50000 nM. Further, the pEC50 in series [2] was 8.42.

On to `CC(C)(C)[C@@H](NC(=O)N1CCOCC1)C(=O)N1CCC[C@H]1C(=O)Nc1nc(-c2ccccc2)cs1`, for which the CC50 in series [1] is over 50000 nM. Moreover, the pEC50 in series [2] was 5.15.

Consider `O=C(N[C@@H](C(=O)N1CCC[C@H]1c1ncc(-c2ccccc2)[nH]1)c1ccccc1)N1CCOCC1`, for which the CC50 in series [1] is over 50000 nM. Further, the pEC50 in series [2] was 7.01.

For the compound `O=C(N[C@@H](C(=O)N1CCC[C@H]1c1nc(-c2ccccc2)no1)c1ccccc1)N1CCOCC1`, the CC50 in series [1] is over 50000 nM. Moreover, in series [2], the pEC50 is under 4.30.

In turn, `O=C(Nc1nc(-c2ccccc2)cs1)[C@@H]1CCCN1C(=O)[C@H](NC(=S)NC1CCCC1)c1ccccc1` came in with a 50% cytotoxic concentration (CC50) in series [1] of over 50000 nM. The pEC50 in series [2] was 8.28.

On to `O=C(N[C@@H](C(=O)N1CCC[C@H]1C(=O)Nc1nc(-c2ccccc2)cs1)c1ccccc1)C1CCCCC1`, for which, in series [1], the CC50 was over 50000 nM. Also, the pEC50 in series [2] was 7.85.

Take `O=C(Nc1cccnc1)N[C@@H](C(=O)N1CCC[C@H]1C(=O)Nc1nc(-c2ccccc2)cs1)c1ccccc1`: the CC50 in series [1] is over 50000 nM. Besides, the pEC50 in series [2] was 8.72.

The compound `CC[C@@H](NC(=O)N1CCOCC1)C(=O)N1CCC[C@H]1C(=O)Nc1nc(-c2ccccc2)cs1` returned a cytotoxic concentration (CC50) in series [1] of over 50000 nM. For the same compound, the pEC50 in series [2] is 5.79.

The compound `O=C(Nc1nc(-c2ccccc2)cs1)[C@@H]1CCCN1C(=O)[C@H](NC(=S)NC1CC1)c1ccccc1` had a CC50 in series [1] of over 50000 nM. Also, in series [2], the pEC50 is 7.47.

In turn, `O=C(Nc1nccs1)[C@@H]1CCCN1C(=O)[C@H](NC(=O)N1CCOCC1)c1ccccc1` displayed a CC50 in series [1] of over 50000 nM. For the same compound, the pEC50 in series [2] is 5.02.

As to `O=C(NC1CCCCC1)N[C@@H](C(=O)N1CCC[C@H]1C(=O)Nc1nc(-c2ccccc2)cs1)c1ccccc1`, in series [1], the CC50 was over 50000 nM. In addition, in series [2], the pEC50 was 8.48.

As to `O=C(Nc1ccccc1)N[C@@H](C(=O)N1CCC[C@H]1C(=O)Nc1nc(-c2ccccc2)cs1)c1ccccc1`, the CC50 in series [1] was over 50000 nM. Besides, in series [2], the pEC50 is 8.64.

In series [1], `CC(C)C(=O)N[C@@H](C(=O)N1CCC[C@H]1C(=O)Nc1nc(-c2ccccc2)cs1)c1ccccc1` displayed a half-maximal cytotoxic concentration (CC50) of over 50000 nM. Further, the pEC50 in series [2] is 7.44.

For `O=C(Nc1nc(C2CCCCC2)cs1)[C@@H]1CCCN1C(=O)[C@H](NC(=O)N1CCOCC1)c1ccccc1`, the CC50 in series [1] was over 50000 nM. Further, in series [2], the pEC50 is 8.22.

Compound `O=C(Nc1nc(-c2ccccc2)cs1)[C@@H]1CCCN1C(=O)[C@H](NC(=S)NC1CCCCC1)c1ccccc1` showed a CC50 in series [1] of over 50000 nM. Also, the pEC50 in series [2] was 8.49.

`Cc1csc(NC(=O)[C@@H]2CCCN2C(=O)[C@H](NC(=O)N2CCOCC2)c2ccccc2)n1` registered a CC50 in series [1] of over 50000 nM. Besides, the pEC50 in series [2] was 6.40.

In the case of `O=C(Nc1ccncc1)N[C@@H](C(=O)N1CCC[C@H]1C(=O)Nc1nc(-c2ccccc2)cs1)c1ccccc1`, the CC50 in series [1] was over 50000 nM. The pEC50 in series [2] was 7.66.

Consider `CCN(CC)C(=O)N[C@@H](C(=O)N1CCC[C@H]1C(=O)Nc1nc(-c2ccccc2)cs1)c1ccccc1`, for which, in series [1], the CC50 was over 50000 nM. For the same compound, the pEC50 in series [2] is 7.74.

Regarding `CC(=O)N[C@@H](C(=O)N1CCC[C@H]1C(=O)Nc1nc(-c2ccccc2)cs1)c1ccccc1`, the CC50 in series [1] was over 50000 nM. Further, the pEC50 in series [2] is 7.80.

Compound `O=C(Nc1nc(-c2ccccc2)cs1)[C@@H]1CCCN1C(=O)[C@H](NC(=S)Nc1ccccc1)c1ccccc1` came in with a CC50 in series [1] of over 50000 nM. The pEC50 in series [2] is 7.34.

Turning to `O=C(NC1CCCC1)N[C@@H](C(=O)N1CCC[C@H]1C(=O)Nc1nc(-c2ccccc2)cs1)c1ccccc1`, in series [1], the CC50 is over 50000 nM. For the same compound, the pEC50 in series [2] is 7.89.

For the compound `CCCC(=O)N[C@@H](C(=O)N1CCC[C@H]1C(=O)Nc1nc(-c2ccccc2)cs1)c1ccccc1`, the CC50 in series [1] was over 50000 nM. Also, the pEC50 in series [2] was 7.82.

The term CC50 denotes the concentration at which the toxic effect on the cells reaches its halfway point. What is called pEC50 is −log10 of the EC50, conventionally taken in molar units.

(Values after ChEMBL document CHEMBL4052583, “A Potent, Selective, and Orally Bioavailable HCV NS5A Inhibitor for Treatment of Hepatitis C Virus: (S)-1-((R)-2-(Cyclopropanecarboxamido)-2-phenylacetyl)-N-(4-phenylthiazol-2-yl)pyrrolidine-2-carboxamide” (J Med Chem, 2017).)
